Measurements: patent US9409870B2, “Compounds” (CHIESI FARMACEUTICI S.p.A., priority 2014, dated 2016)

Each molecule was assayed against T1, human neutrophil elastase (HNE) (Homo sapiens, UniProt P08246) (assay: HNE enzyme activity assay (fluorogenic peptide substrate MeOSuc-Ala-Ala-Pro-Val-AMC)). Settings: human leukocyte elastase 0.00072 U/mL, substrate 100 μM, 25° C., 30 minutes, pH 7.5; at least two separate experiments; read-out: FINE inhibition (HNE enzyme inhibition, IC50 values).
T1 construct: purchased Sigma E8140
T1 sequence (P08246 30-247 limits assumed): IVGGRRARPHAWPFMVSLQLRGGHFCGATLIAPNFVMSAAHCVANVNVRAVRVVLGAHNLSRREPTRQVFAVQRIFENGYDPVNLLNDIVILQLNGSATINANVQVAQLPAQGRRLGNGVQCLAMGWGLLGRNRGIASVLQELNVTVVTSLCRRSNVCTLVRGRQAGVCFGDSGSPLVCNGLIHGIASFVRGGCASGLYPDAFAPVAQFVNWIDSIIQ
Format: biochemical
Procedure: Compounds of this invention were tested for potency in a human neutrophil elastase (HNE) enzyme activity assay.
Assays were performed in 96-well plates in a total assay volume of 100 μL. The final concentration of elastase enzyme (human leukocyte elastase, Sigma E8140) was 0.00072 U/mL. The peptide substrate (MeOSuc-Ala-Ala-Pro-Val-AMC, Calbiochem #324740) was used at a final concentration of 100 μM. The final concentration of DMSO was 1% in the assay buffer (0.05M Tris.HCl, 0.1M NaCl, 0.1M CaCl2, 0.0005% brij-35, pH 7.5). The enzymatic reaction was started by addition of the enzyme and incubated at 25° C. for 30 minutes. After incubation, the reaction was stopped by addition of soybean trypsin inhibitor (Sigma T9003) at a final concentration of 50 μg/well. Fluorescence was measured using a Molecular Devices fluorescence plate reader using 380 nm excitation and 460 nm emission wavelengths.
A dose response to each compound was performed and the effect of compound in each experiment was expressed as a percentage inhibition of the control enzyme fluorescence. Dose response curves were plotted and compound potency (IC50) was determined. Compounds were tested in at least two separate experiments.

`Cc1c(-c2ccnn2-c2ccc(C#N)cc2)n(C(=O)NC2CCOCC2)c(=O)n1-c1cccc(C(F)(F)F)c1` [Example 44, 5-[2-(4-Cyano-phenyl)-2H-pyrazol-3-yl]-4-methyl-2-oxo-3-(3-trifluoromethyl-phenyl)-2,3-dihydro-imidazole-1-carboxylic acid (tetrahydro-pyran-4-yl)-amide] and `Cc1c(-c2ccnn2-c2ccc(C#N)cc2)n(C(=O)NC2CCCC2)c(=O)n1-c1cccc(C(F)(F)F)c1` [Example 45, 5-[2-(4-Cyano-phenyl)-2H-pyrazol-3-yl]-4-methyl-2-oxo-3-(3-trifluoromethyl-phenyl)-2,3-dihydro-imidazole-1-carboxylic acid cyclopentylamide] cannot be ordered by IC50: < 1 nM for the first, < 1 nM for the second.

`Cc1c(-c2ccnn2-c2ccc(C#N)cc2)n(C(=O)N[C@@H]2CCN(C)C2)c(=O)n1-c1cccc(C(F)(F)F)c1` [Example 46, 5-[2-(4-Cyano-phenyl)-2H-pyrazol-3-yl]-4-methyl-2-oxo-3-(3-trifluoromethyl-phenyl)-2,3-dihydro-imidazole-1-carboxylic acid ((R)-1-methyl-pyrrolidin-3-yl)-amide] and `Cc1c(-c2ccnn2-c2ccc(C#N)cc2)n(C(=O)N[C@H]2CCN(C)C2)c(=O)n1-c1cccc(C(F)(F)F)c1` [Example 47, 5-[2-(4-Cyano-phenyl)-2H-pyrazol-3-yl]-4-methyl-2-oxo-3-(3-trifluoromethyl-phenyl)-2,3-dihydro-imidazole-1-carboxylic acid ((S)-1-methyl-pyrrolidin-3-yl)-amide] cannot be ordered by IC50: < 1 nM for the first, < 1 nM for the second.

`Cc1c(-c2ccnn2-c2ccc(C#N)cc2)n(C(=O)NCc2ccccn2)c(=O)n1-c1cccc(C(F)(F)F)c1` [Example 49, 5-[2-(4-Cyano-phenyl)-2H-pyrazol-3-yl]-4-methyl-2-oxo-3-(3-trifluoromethyl-phenyl)-2,3-dihydro-imidazole-1-carboxylic acid (pyridin-2-ylmethyl)-amide] and `Cc1c(-c2ccnn2-c2ccc(C#N)cc2)n(C(=O)NCc2cnccn2)c(=O)n1-c1cccc(C(F)(F)F)c1` [Example 52, 5-[2-(4-Cyano-phenyl)-2H-pyrazol-3-yl]-4-methyl-2-oxo-3-(3-trifluoromethyl-phenyl)-2,3-dihydro-imidazole-1-carboxylic acid (pyrazin-2-ylmethyl)-amide] fall in the same range of IC50: 1 to 10 nM for the first, 1 to 10 nM for the second.

Compared with `Cc1c(-c2ccnn2-c2ccc(C#N)cc2)n(C(=O)NCc2cccnc2)c(=O)n1-c1cccc(C(F)(F)F)c1` [Example 50, 5-[2-(4-Cyano-phenyl)-2H-pyrazol-3-yl]-4-methyl-2-oxo-3-(3-trifluoromethyl-phenyl)-2,3-dihydro-imidazole-1-carboxylic acid (pyridin-3-ylmethyl)-amide], `Cc1c(-c2ccnn2-c2ccc(C#N)cc2)n(C(=O)NCc2ccncc2)c(=O)n1-c1cccc(C(F)(F)F)c1` [Example 51, 5-[2-(4-Cyano-phenyl)-2H-pyrazol-3-yl]-4-methyl-2-oxo-3-(3-trifluoromethyl-phenyl)-2,3-dihydro-imidazole-1-carboxylic acid (pyridin-4-ylmethyl)-amide] is lower in IC50: 1 to 10 nM for the first, < 1 nM for the second. The second is the more potent here.

First: Cc1c(-c2ccnn2-c2ccc(C#N)cc2)n(C(=O)N[C@@H]2CCC[C@H]2O)c(=O)n1-c1cccc(C(F)(F)F)c1 [Example 53, 5-[2-(4-Cyano-phenyl)-2H-pyrazol-3-yl]-4-methyl-2-oxo-3-(3-trifluoromethyl-phenyl)-2,3-dihydro-imidazole-1-carboxylic acid ((1R,2R)-2-hydroxy-cyclopentyl)-amide]
Second: Cc1c(-c2ccnn2-c2ccc(C#N)cc2)n(C(=O)NCC2CCN(C)CC2)c(=O)n1-c1cccc(C(F)(F)F)c1 [Example 54, 5-[2-(4-Cyano-phenyl)-2H-pyrazol-3-yl]-4-methyl-2-oxo-3-(3-trifluoromethyl-phenyl)-2,3-dihydro-imidazole-1-carboxylic acid (1-methyl-piperidin-4-ylmethyl)-amide]
The IC50 of the first is lower: < 1 nM for the first, 1 to 10 nM for the second. The first is the more potent here.

First: Cc1c(-c2ccnn2-c2ccc(C#N)cc2S(C)(=O)=O)[nH]c(=O)n1-c1cccc(C(F)(F)F)c1 [Example 55, 3-Methanesulfonyl-4-{5-[5-methyl-2-oxo-1-(3-trifluoromethyl-phenyl)-2,3-dihydro-1H-imidazol-4-yl]-pyrazol-1-yl}-benzonitrile]
Second: Cc1c(-c2nccn2-c2ccc(C#N)cc2)[nH]c(=O)n1-c1cccc(C(F)(F)F)c1 [Example 59, 4-[5′-Methyl-2′-oxo-1′-(3-trifluoromethyl-phenyl)-2′,3′-dihydro-1′H-[2,4]biimidazolyl-1-yl]-benzonitrile]
The IC50 of the first is higher: > 50 nM for the first, 10 to 50 nM for the second.

Compared with `Cc1c(-c2ccnn2-c2ccc(C#N)cc2Br)n(C(=O)NC2CCCC2)c(=O)n1-c1cccc(C(F)(F)F)c1` [Example 56, 5-[2-(2-Bromo-4-cyano-phenyl)-2H-pyrazol-3-yl]-4-methyl-2-oxo-3-(3-trifluoromethyl-phenyl)-2,3-dihydro-imidazole-1-carboxylic acid cyclopentylamide], `Cc1c(-c2ccnn2-c2ccc(C#N)cc2F)n(C(=O)NC2CCCC2)c(=O)n1-c1cccc(C(F)(F)F)c1` [Example 58, 5-[2-(4-Cyano-2-fluoro-phenyl)-2H-pyrazol-3-yl]-4-methyl-2-oxo-3-(3-trifluoromethyl-phenyl)-2,3-dihydro-imidazole-1-carboxylic acid cyclopentylamide] is lower in IC50: 1 to 10 nM for the first, < 1 nM for the second.

Compared with `Cc1c(-c2ccn(-c3ccc(C#N)cc3Br)n2)n(C(=O)NC2CCCC2)c(=O)n1-c1cccc(C(F)(F)F)c1` [Example 57, 5-[1-(2-Bromo-4-cyano-phenyl)-1H-pyrazol-3-yl]-4-methyl-2-oxo-3-(3-trifluoromethyl-phenyl)-2,3-dihydro-imidazole-1-carboxylic acid cyclopentylamide], `Cc1c(-c2nccn2-c2ccc(C#N)cc2)n(C(=O)NC2CCCC2)c(=O)n1-c1cccc(C(F)(F)F)c1` [Example 60, 1-(4-Cyano-phenyl)-5′-methyl-2′-oxo-1′-(3-trifluoromethyl-phenyl)-1′,2′-dihydro-1H-[2,4]biimidazolyl-3′-carboxylic acid cyclopentylamide] is lower in IC50: 10 to 50 nM for the first, < 1 nM for the second. The second is the more potent here.

`Cc1c(-c2nccn2-c2ccc(C#N)cc2)n(C(=O)NC2CCC2)c(=O)n1-c1cccc(C(F)(F)F)c1` [Example 61, 1-(4-Cyano-phenyl)-5′-methyl-2′-oxo-1′-(3-trifluoromethyl-phenyl)-1′,2′-dihydro-1H-[2,4′]biimidazolyl-3′-carboxylic acid cyclobutylamide] and `Cc1c(-c2ncnn2-c2ccc(C#N)cc2)n(C(=O)NC2CCCC2)c(=O)n1-c1cccc(C(F)(F)F)c1` [Example 63, 5-[2-(4-Cyano-phenyl)-2H-[1,2,4]triazol-3-yl]-4-methyl-2-oxo-3-(3-trifluoromethyl-phenyl)-2,3-dihydro-imidazole-1-carboxylic acid cyclopentylamide] cannot be ordered by IC50: < 1 nM for the first, < 1 nM for the second.

With `Cc1c(-c2nccn2-c2ccc(C#N)cc2)n(C(=O)NCc2ccc(S(C)(=O)=O)cc2)c(=O)n1-c1cccc(C(F)(F)F)c1` [Example 62, 1-(4-Cyano-phenyl)-5′-methyl-2′-oxo-1′-(3-trifluoromethyl-phenyl)-1′,2′-dihydro-1H-[2,4′]biimidazolyl-3′-carboxylic acid 4-methanesulfonyl-benzylamide] the IC50 was < 1 nM.
